From PubChem BioAssay AID200 (DTP/NCI, 2004)
Where “and” joins values, the source holds several entries; their conditions need not be identical. Equal entries are not always repeated. Toxic doses and inconclusive results are not listed.

Test system: B6C3F1 mice, B16 melanoma ip, median survival T/C
Test: NCI In Vivo Anticancer Drug Screen. Data for tumor model B16 Melanoma (intraperitoneal) in B6C3F1 mice
Conditions: endpoint: median survival time, higher = longer survival
How it was run: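 Antitumor effect was judged in mice with transplanted tumors by dividing the treated group's survival measure by that of vehicle controls.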

[1] = dose: 0.78 mg/kg/injection, schedule: Q01DX009 (ip), vehicle: saline
[2] = dose: 12.5 mg/kg/injection, schedule: Q01DX009 (ip), vehicle: saline
[3] = dose: 25.0 mg/kg/injection, schedule: Q01DX009 (ip), vehicle: saline
[4] = dose: 50.0 mg/kg/injection, schedule: Q01DX009 (ip), vehicle: saline
[5] = dose: 25.0 mg/kg/injection, schedule: Q01DX009 (ip), vehicle: saline with Tween-80
[6] = dose: 50.0 mg/kg/injection, schedule: Q01DX009 (ip), vehicle: saline with Tween-80
[7] = dose: 100.0 mg/kg/injection, schedule: Q01DX009 (ip), vehicle: saline with Tween-80
[8] = dose: 200.0 mg/kg/injection, schedule: Q01DX009 (ip), vehicle: saline with Tween-80
[9] = dose: 6.25 mg/kg/injection, schedule: Q01DX009 (ip), vehicle: saline with Tween-80
[10] = dose: 12.5 mg/kg/injection, schedule: Q01DX009 (ip), vehicle: saline with Tween-80
[11] = dose: 100.0 mg/kg/injection, schedule: Q01DX009 (ip), vehicle: suspension in saline

O=C(Nc1ccc([N+](=O)[O-])cc1)Nc1nccs1
T/C (dose: 12.5 mg/kg/injection, schedule: Q01DX009 (ip), vehicle: distilled water + Tween-80): 111 % of control and 120 % of control
T/C (dose: 25.0 mg/kg/injection, schedule: Q01DX009 (ip), vehicle: distilled water + Tween-80): 111 % of control
T/C (dose: 100.0 mg/kg/injection, schedule: Q01DX009 (ip), vehicle: distilled water + Tween-80): 105 % of control

CC(=O)Nc1c2sscc-2n(C)c1=O
T/C (dose: 0.19 mg/kg/injection, schedule: Q01DX009 (ip), vehicle: saline): 105 % of control
T/C (dose: 0.39 mg/kg/injection, schedule: Q01DX009 (ip), vehicle: saline): 93 % of control
T/C [1]: 94 % of control

Oc1ccc(CCl)c2cccnc12
T/C (dose: 12.0 mg/kg/injection, schedule: Q01DX009 (ip), vehicle: saline): 102 % of control
T/C [2]: 100 % of control

CCOC(=O)Nc1cc2c(c(N)n1)N=C(CN(C)c1ccccc1)CN2
T/C (dose: 0.78 mg/kg/injection, schedule: Q01DX009 (ip), vehicle: Klucel (hydroxypropylcellulose) (HPC)): 93 % of control
T/C (dose: 1.56 mg/kg/injection, schedule: Q01DX009 (ip), vehicle: Klucel (hydroxypropylcellulose) (HPC)): 116 % of control
T/C (dose: 3.12 mg/kg/injection, schedule: Q01DX009 (ip), vehicle: Klucel (hydroxypropylcellulose) (HPC)): 114 % of control
T/C (dose: 6.25 mg/kg/injection, schedule: Q01DX009 (ip), vehicle: Klucel (hydroxypropylcellulose) (HPC)): 117 % of control

COCCOC(=O)Cc1ccc(OC)c(OC)c1
T/C [2]: 108 % of control
T/C [3]: 98 % of control
T/C [4]: 104 % of control
T/C (dose: 400.0 mg/kg/injection, schedule: Q01DX009 (ip), vehicle: saline): 87 % of control

O=C(Oc1ccccc1)c1cc(O)c(O)c(O)c1
T/C [5]: 98 % of control
T/C [6]: 97 % of control
T/C [7]: 97 % of control
T/C [8]: 87 % of control

CC(=O)Nc1ccc(C(=O)C=O)cc1
T/C [9]: 101 % of control and 103 % of control
T/C [10]: 116 % of control and 106 % of control
T/C [5]: 112 % of control and 101 % of control
T/C [6]: 112 % of control and 115 % of control
T/C [7]: 102 % of control and 103 % of control

COc1cc2c(oc(=O)c3cc(C)cc(OC)c32)c2c(C3OC(C)C(O)C(C)(O)C3O)ccc(O)c12 (configuration not stated)
T/C (dose: 1.56 mg/kg/injection, schedule: Q01DX009 (ip), vehicle: DMSO): 94 % of control and 103 % of control
T/C (dose: 3.12 mg/kg/injection, schedule: Q01DX009 (ip), vehicle: DMSO): 109 % of control and 107 % of control
T/C (dose: 6.0 mg/kg/injection, schedule: Q01DX009 (ip), vehicle: DMSO): 88 % of control
T/C (dose: 6.25 mg/kg/injection, schedule: Q01DX009 (ip), vehicle: DMSO): 119 % of control and 96 % of control and 104 % of control
T/C (dose: 12.0 mg/kg/injection, schedule: Q01DX009 (ip), vehicle: DMSO): 96 % of control
T/C (dose: 12.5 mg/kg/injection, schedule: Q01DX009 (ip), vehicle: DMSO): 121 % of control

CCOC(=O)Nc1cc2c(c(N)n1)N=C(c1ccc(Cl)cc1Cl)CN2
T/C (dose: 1.5 mg/kg/injection, schedule: Q01DX009 (ip), vehicle: saline with Tween-80): 113 % of control and 119 % of control
T/C (dose: 3.0 mg/kg/injection, schedule: Q01DX009 (ip), vehicle: saline with Tween-80): 115 % of control
T/C (dose: 6.0 mg/kg/injection, schedule: Q01DX009 (ip), vehicle: saline with Tween-80): 115 % of control
T/C [10]: 155 % of control

COc1ccc2c(c1)/C(=C/CCN(C)C)c1ccccc1S2
T/C [2]: 101 % of control
T/C [3]: 101 % of control
T/C [4]: 101 % of control

NC(=O)c1c[se]c(C2OC(CO)C(O)C2O)n1 (configuration not stated)
T/C (dose: 12.5 mg/kg/injection, schedule: Q01DX009 (ip), vehicle: water): 109 % of control
T/C (dose: 25.0 mg/kg/injection, schedule: Q01DX009 (ip), vehicle: water): 102 % of control
T/C (dose: 50.0 mg/kg/injection, schedule: Q01DX009 (ip), vehicle: water): 115 % of control
T/C (dose: 100.0 mg/kg/injection, schedule: Q01DX009 (ip), vehicle: water): 109 % of control

COC12[C@@H]3N[C@@H]3CN1C1=C(C(=O)C(NCCSSCCNC3=C(C)C(=O)C4=C(C3=O)C(COC(N)=O)[C@]3(OC)C5N[C@@H]5CN43)=C(C)C1=O)[C@@H]2COC(N)=O (some centres not stated)
T/C (dose: 0.75 mg/kg/injection, schedule: Q04DX003 (ip), vehicle: suspension in saline): 193 % of control
T/C (dose: 1.5 mg/kg/injection, schedule: Q04DX003 (ip), vehicle: suspension in saline): 190 % of control
T/C (dose: 3.0 mg/kg/injection, schedule: Q04DX003 (ip), vehicle: suspension in saline): 218 % of control
T/C (dose: 6.0 mg/kg/injection, schedule: Q04DX003 (ip), vehicle: suspension in saline): 218 % of control
T/C (dose: 12.0 mg/kg/injection, schedule: Q04DX003 (ip), vehicle: suspension in saline): 218 % of control

Nc1ncnc2c1ncn2C1OCC(O)C1O (configuration not stated)
T/C [2]: 118 % of control
T/C [3]: 121 % of control
T/C [11]: 124 % of control

CC1=C(O)C(=O)[C@@H]2O[C@@H]2C1=O
T/C [1]: 87 % of control and 92 % of control
T/C (dose: 1.56 mg/kg/injection, schedule: Q01DX009 (ip), vehicle: saline): 91 % of control and 98 % of control
T/C (dose: 3.12 mg/kg/injection, schedule: Q01DX009 (ip), vehicle: saline): 103 % of control
T/C (dose: 3.13 mg/kg/injection, schedule: Q01DX009 (ip), vehicle: saline): 107 % of control
T/C (dose: 6.25 mg/kg/injection, schedule: Q01DX009 (ip), vehicle: saline): 112 % of control and 94 % of control
T/C [2]: 108 % of control and 106 % of control

COc1ccccc1Cc1c(OC)cc(OC)c(C(=O)CCc2ccccc2)c1O
T/C (dose: 4.3 mg/kg/injection, schedule: Q01DX009 (ip), vehicle: other): 101 % of control
T/C (dose: 6.4 mg/kg/injection, schedule: Q01DX009 (ip), vehicle: other): 92 % of control
T/C (dose: 9.6 mg/kg/injection, schedule: Q01DX009 (ip), vehicle: other): 89 % of control
T/C (dose: 14.0 mg/kg/injection, schedule: Q01DX009 (ip), vehicle: other): 94 % of control

C/C=C/c1cc2c(c(=O)o1)C(=O)[C@@H](O)[C@H](C)O2
T/C [9]: 98 % of control
T/C [10]: 103 % of control
T/C [5]: 100 % of control
T/C [6]: 118 % of control
T/C [7]: 109 % of control
T/C [8]: 103 % of control

O=C(Nc1ccccc1CCl)Nc1ccccc1CCl
T/C [5]: 111 % of control
T/C [6]: 115 % of control
T/C [7]: 115 % of control
T/C [8]: 118 % of control

C=CCCC(=O)CCCC(=O)O[C@@H]1[C@@H]2[C@H](CC1(C)C)[C@H](O)[C@@]13O[C@@H]1[C@H](O)[C@@]1(CO1)[C@@]23C
T/C (dose: 3.12 micrograms/kg/injection, schedule: Q01DX009 (ip), vehicle: saline): 97 % of control
T/C (dose: 6.25 micrograms/kg/injection, schedule: Q01DX009 (ip), vehicle: saline): 91 % of control
T/C (dose: 12.5 micrograms/kg/injection, schedule: Q01DX009 (ip), vehicle: saline): 103 % of control
T/C (dose: 25.0 micrograms/kg/injection, schedule: Q01DX009 (ip), vehicle: Klucel (hydroxypropylcellulose) (HPC)): 98 % of control
T/C (dose: 25.0 micrograms/kg/injection, schedule: Q01DX009 (ip), vehicle: saline): 93 % of control
T/C (dose: 50.0 micrograms/kg/injection, schedule: Q01DX009 (ip), vehicle: Klucel (hydroxypropylcellulose) (HPC)): 91 % of control
T/C (dose: 50.0 micrograms/kg/injection, schedule: Q01DX009 (ip), vehicle: saline): 97 % of control
T/C (dose: 100.0 micrograms/kg/injection, schedule: Q01DX009 (ip), vehicle: saline): 98 % of control
T/C (dose: 200.0 micrograms/kg/injection, schedule: Q01DX009 (ip), vehicle: Klucel (hydroxypropylcellulose) (HPC)): 98 % of control
T/C (dose: 400.0 micrograms/kg/injection, schedule: Q01DX009 (ip), vehicle: Klucel (hydroxypropylcellulose) (HPC)): 96 % of control

CN(C)CCC(=O)C(=Cc1ccc(O)cc1)C(=O)CCN(C)C
T/C [2]: 101 % of control
T/C [3]: 97 % of control
T/C [4]: 101 % of control
T/C (dose: 100.0 mg/kg/injection, schedule: Q01DX009 (ip), vehicle: saline): 97 % of control
T/C (dose: 200.0 mg/kg/injection, schedule: Q01DX009 (ip), vehicle: saline): 102 % of control

Nc1ccc(OCCCc2c(-c3ccccc3)nc(N)[nH]c2=O)cc1
T/C [5]: 121 % of control
T/C [6]: 102 % of control
T/C [7]: 118 % of control
T/C [8]: 96 % of control

COc1cc(-c2ccc(Nc3ccccc3C(=O)O)c(OC)c2)ccc1Nc1ccccc1C(=O)O
T/C [11]: 94 % of control
T/C (dose: 200.0 mg/kg/injection, schedule: Q01DX009 (ip), vehicle: suspension in saline): 99 % of control
T/C (dose: 400.0 mg/kg/injection, schedule: Q01DX009 (ip), vehicle: suspension in saline): 98 % of control
